Measured values taken from patent publication US20260250290A1 (BRISTOL-MYERS SQUIBB COMPANY, priority 2023, published 2026).
Where a name gives a salt, the structure may show the parent alone.

Biological target: T1, full length SGK1 (Homo sapiens, UniProt O00141)
T1 construct: 125 μM full length SGK1 (Life Technologies Part #PR7358A); purchased Life Technologies PR7358A
T1 sequence (O00141 1-431): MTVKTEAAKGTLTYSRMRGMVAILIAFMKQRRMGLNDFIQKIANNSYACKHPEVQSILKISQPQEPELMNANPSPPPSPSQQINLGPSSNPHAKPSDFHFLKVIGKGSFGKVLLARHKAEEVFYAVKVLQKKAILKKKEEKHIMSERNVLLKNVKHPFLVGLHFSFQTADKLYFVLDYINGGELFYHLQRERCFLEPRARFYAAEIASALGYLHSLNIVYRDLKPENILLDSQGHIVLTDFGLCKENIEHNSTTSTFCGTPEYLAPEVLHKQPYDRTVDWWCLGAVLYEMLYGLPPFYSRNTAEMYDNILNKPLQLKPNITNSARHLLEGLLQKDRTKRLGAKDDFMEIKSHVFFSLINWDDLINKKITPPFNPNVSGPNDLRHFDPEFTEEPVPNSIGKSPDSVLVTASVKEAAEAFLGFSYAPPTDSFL
Test: SGK1 inhibition Assay A (Caliper LabChip electrophoretic separation of fluorescent peptide substrate and phosphorylated product)
Format: biochemical
Conditions: Assay A; 20 μM ATP, 40 min incubation; read-out: SGK1 IC50

SMILES | IC50
Nc1ncnn2c(-c3ccn[nH]3)cc(N3CCC[C@@H](NC(=O)c4ccc(Cl)s4)C3)c12 [Example 211, (R)-N-(1-(4-amino-7-(1H-pyrazol-5-yl)pyrrolo[2,1-f][1,2,4]triazin-5-yl)piperidin-3-yl)-5-chlorothiophene-2-carboxamide] | 3 nM
N#Cc1ccc(-c2cc(N3CCC[C@@H](NC(=O)c4ccc(Cl)s4)C3)c3c(N)ncnn23)s1 [Example 212, (R)-N-(1-(4-amino-7-(5-cyanothiophen-2-yl)pyrrolo[2,1-f][1,2,4]triazin-5-yl)piperidin-3-yl)-5-chlorothiophene-2-carboxamide, TFA] | 6 nM
COc1cnccc1-c1cc(N2CCC[C@@H](NC(=O)c3ccc(Cl)s3)C2)c2c(N)ncnn12 [Example 213, (R)-N-(1-(4-amino-7-(3-methoxypyridin-4-yl)pyrrolo[2,1-f][1,2,4]triazin-5-yl)piperidin-3-yl)-5-chlorothiophene-2-carboxamide, TFA] | 5 nM
Nc1ncnn2c(-c3cccc(CO)c3)cc(N3CCC[C@@H](NC(=O)c4ccc(Cl)s4)C3)c12 [Example 214, (R)-N-(1-(4-amino-7-(3-(hydroxymethyl)phenyl)pyrrolo[2,1-f][1,2,4]triazin-5-yl)piperidin-3-yl)-5-chlorothiophene-2-carboxamide] | 11 nM
COc1cc(-c2cc(N3CCC[C@@H](NC(=O)c4ccc(Cl)s4)C3)c3c(N)ncnn23)ccn1 [Example 215, (R)-N-(1-(4-amino-7-(2-methoxypyridin-4-yl)pyrrolo[2,1-f][1,2,4]triazin-5-yl)piperidin-3-yl)-5-chlorothiophene-2-carboxamide, TFA] | 6 nM
Cn1cc(-c2cc(N3CCC[C@@H](NC(=O)c4ccc(Cl)s4)C3)c3c(N)ncnn23)cn1 [Example 216, (R)-N-(1-(4-amino-7-(1-methyl-1H-pyrazol-4-yl)pyrrolo[2,1-f][1,2,4]triazin-5-yl)piperidin-3-yl)-5-chlorothiophene-2-carboxamide, TFA] | 26 nM
Cc1nn(C)cc1-c1cc(N2CCC[C@@H](NC(=O)c3ccc(Cl)s3)C2)c2c(N)ncnn12 [Example 217, (R)-N-(1-(4-amino-7-(1,3-dimethyl-1H-pyrazol-4-yl)pyrrolo[2,1-f][1,2,4]triazin-5-yl)piperidin-3-yl)-5-chlorothiophene-2-carboxamide] | 62 nM
CC(C)(O)c1ccc(-c2cc(N3CCC[C@@H](NC(=O)c4ccc(Cl)s4)C3)c3c(N)ncnn23)cc1 [Example 218, (R)-N-(1-(4-amino-7-(4-(2-hydroxypropan-2-yl)phenyl)pyrrolo[2,1-f][1,2,4]triazin-5-yl)piperidin-3-yl)-5-chlorothiophene-2-carboxamide, TFA] | 233 nM
Nc1ncnn2c(-c3ccc4c(c3)C(=O)NC4)cc(N3CCC[C@@H](NC(=O)c4ccc(Cl)s4)C3)c12 [Example 219, (R)-N-(1-(4-amino-7-(3-oxoisoindolin-5-yl)pyrrolo[2,1-f][1,2,4]triazin-5-yl)piperidin-3-yl)-5-chlorothiophene-2-carboxamide] | 68 nM
Nc1ncnn2c(-c3ccnc(C(F)(F)F)c3)cc(N3CCC[C@@H](NC(=O)c4ccc(Cl)s4)C3)c12 [Example 220, (R)-N-(1-(4-amino-7-(2-(trifluoromethyl)pyridin-4-yl)pyrrolo[2,1-f][1,2,4]triazin-5-yl)piperidin-3-yl)-5-chlorothiophene-2-carboxamide] | 7 nM
Nc1ncnn2c(-c3ccc(CN4CCOCC4)cc3)cc(N3CCC[C@@H](NC(=O)c4ccc(Cl)s4)C3)c12 [Example 221] | 800 nM
COc1cc(-c2cc(N3CCC[C@@H](NC(=O)c4ccc(Cl)s4)C3)c3c(N)ncnn23)ccc1C#N [Example 222, (R)-N-(1-(4-amino-7-(4-cyano-3-methoxyphenyl)pyrrolo [2,1-f][1,2,4]triazin-5-yl)piperidin-3-yl)-5-chlorothiophene-2-carboxamide, TFA] | 43 nM
Nc1ncnn2c(-c3ccc(N4CCOCC4)cc3)cc(N3CCC[C@@H](NC(=O)c4ccc(Cl)s4)C3)c12 [Example 223, (R)-N-(1-(4-amino-7-(4-morpholinophenyl)pyrrolo [2,1-f][1,2,4]triazin-5-yl)piperidin-3-yl)-5-chlorothiophene-2-carboxamide, TFA] | 199 nM
COCCNC(=O)c1ccc(-c2cc(N3CCC[C@@H](NC(=O)c4ccc(Cl)s4)C3)c3c(N)ncnn23)cc1 [Example 224, (R)-N-(1-(4-amino-7-(4-((2-methoxyethyl)carbamoyl)phenyl)pyrrolo[2,1-f][1,2,4]triazin-5-yl)piperidin-3-yl)-5-chlorothiophene-2-carboxamide] | 11 nM
Nc1ncnn2c(-c3ccc(OC(F)F)cc3)cc(N3CCC[C@@H](NC(=O)c4ccc(Cl)s4)C3)c12 [Example 225, (R)-N-(1-(4-amino-7-(4-(difluoromethoxy)phenyl)pyrrolo [2,1-f][1,2,4]triazin-5-yl)piperidin-3-yl)-5-chlorothiophene-2-carboxamide, TFA] | 15 nM
CS(=O)(=O)c1ccc(-c2cc(N3CCC[C@@H](NC(=O)c4ccc(Cl)s4)C3)c3c(N)ncnn23)cn1 [Example 226, N-[(3R)-1-[4-amino-7-(6-methanesulfonylpyridin-3-yl)pyrrolo[2,1-f][1,2,4]triazin-5-yl]piperidin-3-yl]-5-chlorothiophene-2-carboxamide] | 2 nM
COc1c(-c2cc(N3CCC[C@@H](NC(=O)c4ccc(Cl)s4)C3)c3c(N)ncnn23)ccnc1F [Example 227] | 18 nM
Nc1ncnn2c(-c3ccc(S(=O)(=O)C4CC4)cc3)cc(N3CCC[C@@H](NC(=O)c4ccc(Cl)s4)C3)c12 [Example 228, N-[(3R)-1-{4-amino-7-[4-(cyclopropanesulfonyl)phenyl]pyrrolo[2,1-f][1,2,4]triazin-5-yl}piperidin-3-yl]-5-chlorothiophene-2-carboxamide, TFA] | 6 nM
Nc1ncnn2c(-c3cccc(OC(F)F)c3)cc(N3CCC[C@@H](NC(=O)c4ccc(Cl)s4)C3)c12 [Example 229] | 46 nM
Nc1ncnn2c(-c3ccco3)cc(N3CCC[C@@H](NC(=O)c4ccc(Cl)s4)C3)c12 [Example 230] | 21 nM
Nc1ncnn2c(-c3cc(F)nc(F)c3)cc(N3CCC[C@@H](NC(=O)c4ccc(Cl)s4)C3)c12 [Example 231] | 12 nM
COc1cc(-c2cc(N3CCC[C@@H](NC(=O)c4ccc(Cl)s4)C3)c3c(N)ncnn23)cc(C(F)(F)F)n1 [Example 232, N-[(3R)-1-{4-amino-7-[2-methoxy-6-(trifluoromethyl)pyridin-4-yl]pyrrolo[2,1-f][1,2,4]triazin-5-yl}piperidin-3-yl]-5-chlorothiophene-2-carboxamide] | 161 nM
Cc1cnc(F)cc1-c1cc(N2CCC[C@@H](NC(=O)c3ccc(Cl)s3)C2)c2c(N)ncnn12 [Example 233] | 33 nM
Nc1ncnn2c(-c3cccc(Cl)c3)cc(N3CCC[C@@H](NC(=O)c4ccc(Cl)s4)C3)c12 [Example 234] | 64 nM
Nc1ncnn2c(-c3ccc(Cl)cc3)cc(N3CCC[C@@H](NC(=O)c4ccc(Cl)s4)C3)c12 [Example 235] | 37 nM
Nc1ncnn2c(-c3ccc(Cl)nc3)cc(N3CCC[C@@H](NC(=O)c4ccc(Cl)s4)C3)c12 [Example 236] | 19 nM
